Data reported in patent publication US8513272B2, “Forms of a fused pyrrolocarbazole compound” (Cephalon, Inc., priority 2008, dated 2013).
≈ marks a conversion by molar mass, not a printed value.

Experiment: Solubility of various forms of Compound I in water and pH 1, pH 2 (HCl/KCl) buffers at 25° C., HPLC analysis
Format: physicochemical
Conditions: stirring 300 rpm, saturated solution; for Solubility, pH 1 Buffer: pH 1 HCl/KCl buffer; for Solubility, pH 2 Buffer: pH 2 HCl/KCl buffer
Method: Solubility of Various Forms of Compound I in Water and pH1, pH2 Buffers
Solubility was measured by adding 25 mg of the various forms of Compound I or an amount adequate to maintain a saturated solution in water and pH 1, pH 2 (HCl/KCl buffers). Temperature of 25° C. and a stirring rate of 300 rpm were maintained by using a HEL Crystal Scan unit (HEL, UK). Samples were withdrawn at the times indicated, filtered and analyzed by HPLC for Compound I using the method described below.
HPLC Method for Measurement of CEP11981 Content of Solubility Samples
Testing was performed on a calibrated ThermoFinnigan High Performance Liquid Chromatography (HPLC) system designated LC-0410-AD. The system comprises a P4000 pump, AS3000 autosampler, and UV2000 detector. A TCM 2000 temperature control module was used to heat the column. All standard solutions and samples were prepared in Class A glass volumetric flasks and were placed in autosampler vials. Standard weightings were done using a calibrated Mettler analytical balance. The sample preparations were centrifuged using an Eppendorf microcentrifuge. The primary chromatography data was acquired and integrated using ChromQuest software. Microsoft Office Excel 2003 was used for the calculation of results.
Column: MS C18, 150×4.6 mm ID, 3.5μ Waters, m Xterra packing
Column Temperature: 30° C.
Detector: UV/VIS @ 270 nm
Mobile Phase A: 10 mM Ammonium Acetate (aqueous)
Mobile Phase B: 10 mM Ammonium Acetate in sample solvent

Row | Structure (SMILES) | Solubility, pH 1 Buffer [mcg/mL] | Solubility, pH 2 Buffer [mcg/mL] | Solubility, Water [µg/mL]
1 | CC(C)Cn1c2ccc(Nc3ncccn3)cc2c2c3c(c4c(c21)CCc1nn(C)cc1-4)C(=O)NC3 [AS, 11-isobutyl-2-methyl-8-(2-pyrimidinylamino)-2,5,6,11,12,13-hexahydro-4H-indazolo[5,4-a]pyrrolo[3,4-c]carbazol-4-one] | 20000 | 0.04 | <1
2 | CC(C)Cn1c2ccc(Nc3ncccn3)cc2c2c3c(c4c(c21)CCc1nn(C)cc1-4)C(=O)NC3 [pTSA-A1, 11-isobutyl-2-methyl-8-(2-pyrimidinylamino)-2,5,6,11,12,13-hexahydro-4H-indazolo[5,4-a]pyrrolo[3,4-c]carbazol-4-one] | 23 | 0.3 | <1
3 | CC(C)Cn1c2ccc(Nc3ncccn3)cc2c2c3c(c4c(c21)CCc1nn(C)cc1-4)C(=O)NC3 [pTSA-A2, 11-isobutyl-2-methyl-8-(2-pyrimidinylamino)-2,5,6,11,12,13-hexahydro-4H-indazolo[5,4-a]pyrrolo[3,4-c]carbazol-4-one] | 11 | 5 | 20 (≈ 41.9 µM)
